Experimental data as given in ChEMBL document CHEMBL1130492 (Bioorg Med Chem Lett, 1997).

Legend:
Canis familiaris [1] = organism: Canis familiaris; assay: Percent of radioactive dose in urine and feces excreted by 0-24 hr in dogs; NA is <10% inhibition at 1 uM for binding data; format: ADME, organism-based, Canis lupus familiaris; details: dog, in vivo
Rattus norvegicus [2] = organism: Rattus norvegicus; assay: Percent of radioactive dose in urine and feces excreted in 0-24 hr by rats; NA is <10% inhibition at 1 uM for binding data; format: ADME, organism-based; details: in vivo
D(2) dopamine receptor = D(2) dopamine receptor (Rattus norvegicus, UniProt P61169); assay: In vitro ability to displace Dopamine D2 receptor binding to rat striatal membranes in competition experiments against 3H-spiperone, expressed as Ki; design: species or system Striatum, Membrane
Rattus norvegicus [3] = assay: (§1) In vivo antipsychotic activity determined for dose ip by CAR (conditioned avoidance response) assay; format: functional; design: unit not given here
[4] = molecular target: T1, 5-hydroxytryptamine receptor 1A (Rattus norvegicus, UniProt P19327); assay: In vitro ability to displace serotonin 5-HT1A receptor binding to rat cerebral cortex in competition experiments against [3H]8-(hydroxy)dipropyl aminotetralin at 15 mg/kg concentration
T1 sequence (P19327 whole entry): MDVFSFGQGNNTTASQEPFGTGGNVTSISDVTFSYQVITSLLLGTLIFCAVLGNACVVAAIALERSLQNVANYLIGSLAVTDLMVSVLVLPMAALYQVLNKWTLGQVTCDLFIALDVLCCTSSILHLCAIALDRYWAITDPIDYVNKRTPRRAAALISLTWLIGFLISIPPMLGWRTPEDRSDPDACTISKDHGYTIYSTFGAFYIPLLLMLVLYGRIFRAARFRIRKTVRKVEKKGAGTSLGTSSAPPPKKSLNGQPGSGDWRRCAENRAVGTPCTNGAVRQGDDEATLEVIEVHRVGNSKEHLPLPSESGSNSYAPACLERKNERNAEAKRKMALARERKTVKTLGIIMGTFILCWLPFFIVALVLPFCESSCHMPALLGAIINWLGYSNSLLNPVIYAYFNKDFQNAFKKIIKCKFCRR

[5] = molecular target: T2, Adrenergic receptor alpha-1 (Rattus norvegicus, UniProt P15823+P23944+P43140); assay: In vitro ability to displace Alpha-1 adrenergic receptor binding to rat cerebral cortex in competition experiments against [3H]prazosin […], expressed as Ki.
T2 sequence (P15823 whole entry): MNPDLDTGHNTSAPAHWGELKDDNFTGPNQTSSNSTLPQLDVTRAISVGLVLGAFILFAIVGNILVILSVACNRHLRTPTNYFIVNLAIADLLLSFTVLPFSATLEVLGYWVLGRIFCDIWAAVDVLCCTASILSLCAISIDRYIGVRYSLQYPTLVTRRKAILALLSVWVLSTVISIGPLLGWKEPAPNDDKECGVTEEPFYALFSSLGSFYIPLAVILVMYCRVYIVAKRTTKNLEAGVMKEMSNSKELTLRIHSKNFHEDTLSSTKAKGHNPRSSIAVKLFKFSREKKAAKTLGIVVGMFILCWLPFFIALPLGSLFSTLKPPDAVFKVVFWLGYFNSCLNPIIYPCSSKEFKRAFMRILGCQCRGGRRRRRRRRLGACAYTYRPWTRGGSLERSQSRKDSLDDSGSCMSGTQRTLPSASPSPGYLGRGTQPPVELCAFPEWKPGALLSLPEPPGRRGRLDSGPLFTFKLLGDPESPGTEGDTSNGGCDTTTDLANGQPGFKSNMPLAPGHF
T2 sequence (P23944 whole entry): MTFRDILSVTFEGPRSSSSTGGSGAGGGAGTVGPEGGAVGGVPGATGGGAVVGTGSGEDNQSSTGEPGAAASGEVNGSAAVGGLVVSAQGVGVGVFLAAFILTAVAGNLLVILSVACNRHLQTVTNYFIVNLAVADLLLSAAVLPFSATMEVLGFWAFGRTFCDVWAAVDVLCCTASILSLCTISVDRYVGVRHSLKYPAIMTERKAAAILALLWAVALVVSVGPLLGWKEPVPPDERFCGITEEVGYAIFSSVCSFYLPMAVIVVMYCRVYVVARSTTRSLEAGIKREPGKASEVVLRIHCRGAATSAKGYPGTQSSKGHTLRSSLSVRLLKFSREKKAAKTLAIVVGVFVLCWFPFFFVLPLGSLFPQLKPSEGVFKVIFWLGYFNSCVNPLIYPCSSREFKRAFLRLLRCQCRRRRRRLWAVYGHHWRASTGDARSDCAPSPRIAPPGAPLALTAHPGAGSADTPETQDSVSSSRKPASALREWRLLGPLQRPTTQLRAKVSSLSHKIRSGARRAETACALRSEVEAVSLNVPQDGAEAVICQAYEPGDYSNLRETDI
T2 sequence (P43140 whole entry): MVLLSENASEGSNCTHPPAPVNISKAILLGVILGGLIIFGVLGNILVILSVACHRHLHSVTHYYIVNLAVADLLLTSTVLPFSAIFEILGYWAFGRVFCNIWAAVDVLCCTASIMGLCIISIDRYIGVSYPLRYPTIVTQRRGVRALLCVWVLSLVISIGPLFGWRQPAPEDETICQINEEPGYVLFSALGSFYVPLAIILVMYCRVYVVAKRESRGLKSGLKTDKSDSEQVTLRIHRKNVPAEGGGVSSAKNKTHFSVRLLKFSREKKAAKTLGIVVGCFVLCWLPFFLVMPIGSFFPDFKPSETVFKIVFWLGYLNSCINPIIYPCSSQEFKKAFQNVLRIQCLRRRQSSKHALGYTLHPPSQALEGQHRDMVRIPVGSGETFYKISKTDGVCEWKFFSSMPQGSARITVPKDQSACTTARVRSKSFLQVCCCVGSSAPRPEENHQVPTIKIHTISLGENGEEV

Canis familiaris [6] = organism: Canis familiaris; assay: Percent of radioactive dose in urine and feces excreted in 0-24 hr by dogs; NA is <10% inhibition at 1 uM for binding data; format: ADME, organism-based, Canis lupus familiaris; details: dog, in vivo
Canis familiaris [7] = organism: Canis familiaris; assay: Percent of radioactive dose in urine and feces excreted by 0-24 hr in dogs; format: ADME, organism-based, Canis lupus familiaris; details: dog, in vivo
Rattus norvegicus [8] = organism: Rattus norvegicus; assay: Percent of radioactive dose in urine and feces excreted in 0-24 hr by rats; format: ADME, organism-based; details: in vivo
[9] = molecular target: T1, 5-hydroxytryptamine receptor 1A; assay: In vitro ability to displace serotonin 5-HT1A receptor binding to rat cerebral cortex in competition experiments against [3H]8-(hydroxy)dipropyl aminotetralin at 1 mg/kg concentration
[10] = molecular target: T2, Adrenergic receptor alpha-1; assay: In vitro ability to displace Alpha-1 adrenergic receptor binding to rat cerebral cortex in competition experiments against [3H]-prazosin, expressed as Ki.
Canis familiaris [11] = organism: Canis familiaris; assay: Percent of radioactive dose in urine and faeces excreted in 0-24 hr by dogs; format: ADME, organism-based, Canis lupus familiaris, Urine/Feces; details: dog, in vivo
Rattus norvegicus [12] = organism: Rattus norvegicus; assay: Percent of radioactive dose in urine and faeces excreted in 0-24 hr by rats; format: ADME, organism-based, Urine/Feces; details: in vivo
Rattus norvegicus [13] = assay: as §1; format: functional
[14] = molecular target: D(2) dopamine receptor (Rattus norvegicus) (UniProt P61169); assay: In vitro ability to displace Dopamine D2 receptor binding to rat striatal membranes in competition experiments against [3H]spiperone at 1 uM concentration; details: Striatum, Membrane
[15] = molecular target: T3, 5-hydroxytryptamine receptor 1A (Rattus norvegicus) (UniProt P19327); assay: In vitro ability to displace serotonin 5-HT1A receptor binding to rat cerebral cortex in competition experiments against [3H]8-(hydroxy)dipropyl aminotetralin at 1 uM concentration; format: tissue-based
T3 sequence (whole entry): T1 sequence (P19327 whole entry)

[16] = molecular target: Adrenergic receptor alpha-1 (Rattus norvegicus) (UniProt P15823+P23944+P43140); assay: In vitro ability to displace Alpha-1 adrenergic receptor binding to rat cerebral cortex in competition experiments against [3H]prazosin at 1 µM, expressed as % inhibition.

Sequence of D(2) dopamine receptor (P61169 whole entry): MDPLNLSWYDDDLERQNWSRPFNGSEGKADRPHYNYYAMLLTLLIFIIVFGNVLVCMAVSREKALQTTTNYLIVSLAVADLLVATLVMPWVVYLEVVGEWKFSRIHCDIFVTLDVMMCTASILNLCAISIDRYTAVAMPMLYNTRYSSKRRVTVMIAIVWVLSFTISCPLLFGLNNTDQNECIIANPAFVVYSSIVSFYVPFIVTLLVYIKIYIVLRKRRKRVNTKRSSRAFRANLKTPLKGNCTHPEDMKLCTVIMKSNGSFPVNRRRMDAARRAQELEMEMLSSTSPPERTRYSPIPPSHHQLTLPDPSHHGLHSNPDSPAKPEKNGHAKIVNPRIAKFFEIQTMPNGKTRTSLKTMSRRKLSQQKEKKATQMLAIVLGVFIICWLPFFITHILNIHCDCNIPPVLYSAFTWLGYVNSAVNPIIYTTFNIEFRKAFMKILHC
Sequence of D(2) dopamine receptor (Rattus norvegicus) (P61169 whole entry): as above

Structure (SMILES) | Dose (Rattus norvegicus [2]) | Ki (D(2) dopamine receptor) | Ki [4] | Ki [5] | Dose (Canis familiaris [7]) | Dose (Rattus norvegicus [8]) | CAR (Rattus norvegicus [3]) | further results
CC(C)Oc1ccccc1N1CCN(Cc2cccc(C(=O)N3CCCCC3O)c2)CC1 (stereo not given) | < 2% | 9 nM | 3 nM | 4 nM |  |  | -64 | Dose (Canis familiaris [6]): < 2%
CC(C)Oc1ccccc1N1CCN(Cc2cccc(C(=O)N3CCCCC3)c2)CC1 [MAZAPERTINE] |  |  |  |  |  |  |  | Dose (Canis familiaris [11]): 5%; Dose (Rattus norvegicus [12]): 4%; CAR (Rattus norvegicus [13]): -92
CC(C)Oc1cc(O)ccc1N1CCN(Cc2cccc(C(=O)N3CCCCC3)c2)CC1 |  |  |  |  | 3% | 13% | -10 | 
O=C(O)c1cccc(C(=O)N2CCCCC2)c1 |  |  |  |  | 8% | 11% | -3 | inhibition [14]: < 10%; inhibition [15]: < 10%; inhibition [16]: < 10%

More lines, main results first:

Dose (Rattus norvegicus [2]) | Ki (D(2) dopamine receptor) | Ki [4] | Ki [5] | Dose (Canis familiaris [7]) | Dose (Rattus norvegicus [8]) | Structure (SMILES) | CAR (Rattus norvegicus [3]) | further results
< 2% | 8.8 nM | 6.8 nM | 21 nM |  |  | CC(C)Oc1ccccc1N1CCN(Cc2cccc(C(=O)N3CCCC(O)C3)c2)CC1 (stereo not given) | -96 | Dose (Canis familiaris [1]): < 2%
 | 11 nM |  |  | 3% | 3% | CC(C)Oc1ccccc1N1CCN(Cc2cccc(C(=O)N3CCC(O)CC3)c2)CC1 | -76 | Ki [9]: 7.8 nM; Ki [10]: 3.6 nM
